BindingDB's records for doi:10.1111/j.1471-4159.1979.tb04553.x (1979)

Molecular target: Gamma-aminobutyric acid type B receptor subunit 1 (UniProt Q9Z0U4)
Sequence (Q9Z0U4 whole entry): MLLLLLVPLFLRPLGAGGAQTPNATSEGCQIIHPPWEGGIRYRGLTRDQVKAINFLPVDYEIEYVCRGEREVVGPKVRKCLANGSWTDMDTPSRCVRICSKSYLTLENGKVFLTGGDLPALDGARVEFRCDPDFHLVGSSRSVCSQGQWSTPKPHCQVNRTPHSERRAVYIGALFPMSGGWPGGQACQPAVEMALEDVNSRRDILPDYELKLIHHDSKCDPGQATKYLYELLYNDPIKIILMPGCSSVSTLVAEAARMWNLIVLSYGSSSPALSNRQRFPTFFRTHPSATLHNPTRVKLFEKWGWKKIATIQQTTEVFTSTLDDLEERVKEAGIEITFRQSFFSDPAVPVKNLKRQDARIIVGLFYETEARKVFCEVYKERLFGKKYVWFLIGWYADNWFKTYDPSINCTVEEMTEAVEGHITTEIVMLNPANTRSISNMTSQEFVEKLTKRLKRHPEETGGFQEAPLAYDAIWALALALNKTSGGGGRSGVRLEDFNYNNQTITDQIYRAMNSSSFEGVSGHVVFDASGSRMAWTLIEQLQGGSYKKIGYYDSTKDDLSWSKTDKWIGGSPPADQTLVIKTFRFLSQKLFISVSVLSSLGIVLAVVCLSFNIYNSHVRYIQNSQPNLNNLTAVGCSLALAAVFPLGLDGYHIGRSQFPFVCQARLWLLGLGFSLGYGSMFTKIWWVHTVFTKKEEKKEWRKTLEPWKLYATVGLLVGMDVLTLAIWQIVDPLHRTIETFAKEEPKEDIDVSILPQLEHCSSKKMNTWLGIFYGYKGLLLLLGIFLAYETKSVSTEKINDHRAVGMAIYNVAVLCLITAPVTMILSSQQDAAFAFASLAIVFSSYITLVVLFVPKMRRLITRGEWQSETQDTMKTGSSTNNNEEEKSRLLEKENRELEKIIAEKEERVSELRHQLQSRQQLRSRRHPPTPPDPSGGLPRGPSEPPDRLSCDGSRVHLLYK

SMILES | Ki
NCc1cc(=O)[nH]o1 | 0.01 µM
c1c[nH]cn1 | 0.229 µM
O=C(O)[C@@H]1CCCNC1 (racemic) [Nipecotic] | > 10 µM
N[C@@H]1C(=O)N2C(C(=O)O)=C(CSc3cnn[nH]3)CS[C@H]12 [CAS_37539-03-0] | 0.051 µM
CC(C)(O)C1C2OC(=O)C1C1(O)CC3OC34C(=O)OC2C14C (stereo not given) [NSC_5311359] | > 10 µM
